Experimental data from US20120022107A1, “2-(PIPERIDIN-1-YL)-4-AZOLYL-THIAZOLE-5-CARBOXYLIC ACID DERIVATIVES AGAINST BACTERIAL INFECTIONS” (ASTRAZENECA AB, priority 2008, published 2012).
In brackets after ≈: the same amount, converted by molar mass.

Experiments:
Msmeg = Msmeg (Mycolicibacterium smegmatis, UniProt A0QNE0); experiment: Msmeg IC50; type: biochemical
M. tuberculosis = experiment: MIC testing: Microplate Alamar Blue Assay; type: cell-based, Mycobacterium tuberculosis; settings: Mycobacterium tuberculosis, lowest concentration preventing color change from blue to pink, read-out: Mtu MIC
Hinf = Hinf MIC; type: cell-based, Haemophilus influenzae; settings: Haemophilus influenzae; read-out: Hinf_MIC
Sau = Sau MIC; type: cell-based, Staphylococcus aureus; settings: Staphylococcus aureus; read-out: Sau_MIC
Spn = Spn MIC; type: cell-based, Streptococcus pneumoniae; settings: Streptococcus pneumoniae; read-out: Spn_MIC

Msmeg, sequence (A0QNE0 whole entry): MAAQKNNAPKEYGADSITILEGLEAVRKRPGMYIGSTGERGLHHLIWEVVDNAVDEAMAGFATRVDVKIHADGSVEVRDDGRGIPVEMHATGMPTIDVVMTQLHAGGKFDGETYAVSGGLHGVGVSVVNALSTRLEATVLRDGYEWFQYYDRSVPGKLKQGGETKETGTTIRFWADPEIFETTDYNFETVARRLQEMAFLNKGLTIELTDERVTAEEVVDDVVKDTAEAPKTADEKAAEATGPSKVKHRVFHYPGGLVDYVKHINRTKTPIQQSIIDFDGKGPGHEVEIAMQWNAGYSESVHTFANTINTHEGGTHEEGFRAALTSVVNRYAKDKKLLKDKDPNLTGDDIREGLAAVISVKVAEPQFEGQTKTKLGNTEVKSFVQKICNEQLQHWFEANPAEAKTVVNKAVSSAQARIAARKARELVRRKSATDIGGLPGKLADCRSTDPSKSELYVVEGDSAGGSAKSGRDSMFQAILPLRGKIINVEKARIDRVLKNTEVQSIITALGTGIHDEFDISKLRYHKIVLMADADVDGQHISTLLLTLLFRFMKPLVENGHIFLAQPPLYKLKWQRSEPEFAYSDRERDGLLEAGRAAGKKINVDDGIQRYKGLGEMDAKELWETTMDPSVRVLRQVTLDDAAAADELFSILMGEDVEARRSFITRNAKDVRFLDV

Row | Compound | IC50 (Msmeg) [nM] | MIC (M. tuberculosis) [µg/mL] | MIC (Hinf) [µg/mL] | MIC (Sau) [µg/mL] | MIC (Spn) [µg/mL]
1 | CO[C@H]1CN(c2nc(-c3ncnn3C)c(C(=O)O)s2)CC[C@H]1NC(=O)c1[nH]c(C)c(Br)c1Cl [Example 2, 2-((3S,4R)-4-{[4-Bromo-3-chloro-5-methyl-1H-pyrrole-2-carbonyl]amino}-3-methoxypiperidin-1-yl)-4-(1-methyl-1H-1,2,4-triazol-5-yl)-1,3-thiazole-5-carboxylic acid] | < 4 | < 0.03 | 2.6 (≈ 4.65 µM) | 0.1 (≈ 0.179 µM) | 0.1 (≈ 0.179 µM)
2 | CO[C@H]1CN(c2nc(-c3ncnn3C)c(C(=O)O)s2)CC[C@H]1NC(=O)c1[nH]c(Cl)c(C)c1Cl [Example 4, 2-((3S,4R)-4-{[(3,5-Dichloro-4-methyl-1H-pyrrol-2-yl)carbonyl]amino}-3-methoxypiperidin-1-yl)-4-(1-methyl-1H-1,2,4-triazol-5-yl)-1,3-thiazole-5-carboxylic acid] | 30 | 0.125 (≈ 0.243 µM) | 4 (≈ 7.78 µM) | 1.26 (≈ 2.45 µM) | 0.1 (≈ 0.194 µM)
